Measured values reported in US20210293785A1, “METHODS FOR PREDICTING STEROID RESPONSIVENESS” (FLORIDA STATE UNIVERSITY RESEARCH FOUNDATION, INC., priority 2020, published 2021).

Test system: keloid fibroblasts
Experiment: Cell proliferation assay of patient-derived fibroblasts with or without steroid
Type: cell-based, human
Description: As depicted in the flow diagram of FIG. 3, in some embodiments, the method of the invention involves culturing small (˜2 mm) tissue pieces using standard cell culture media and conditions to allow the outgrowth of cells, which takes 1-2 weeks. Depending upon the desired cell type or cell types, non-invasive sampling methods can be utilized, such an oral rinse. The outgrown cells are collected by trypsinization and re-seeded in fresh wells. Upon attachment, the cells are treated in triplicate with or without 10 micromolar Triamcinolone Acetonide (TA), a potent synthetic steroid used widely in the clinic, or varying concentrations of any other test steroid. The viable cells are harvested 4-7 days post-treatment (when the untreated cells start approaching confluency) and counted to determine the effects of the steroid on cell proliferation. The inventors have tested the method of the invention using fibroblast cells derived from 3 normal human skin biopsies as well as 20 surgically excised keloids from patients and exposing them to TA, as well as hydrocortisone, another commonly used steroid in the clinic. The results were remarkably similar to those observed for the response of keloid patients to steroids in the clinic, with 52% of the samples being sensitive (responsive) to the TA treatment, while 39% were non-responsive and 9% were hyperproliferative in TA (which predicts a worsening of condition upon steroid therapy). In summary, our screening test described herein can be used to determine patients' responses to steroids in less than 4 weeks, following which responsive patients can undergo steroid therapy, while others can avoid the potentially harmful steroids altogether and seek other therapies. Culture of keloid derived primary fibroblast cells. Surgically excised keloid and normal skin explants were obtained from patients under Florida State University IRB (2016.19175 and 2017.22173). The explants were cut into small pieces, digested with trypsin, washed with and cultured in DMEM containing 10% fetal bovine serum and Antibiotic/Antimycotic solution maintained at 37° C. and 5% CO2. Outgrowth of only primary dermal fibroblasts occurred under our culture conditions and these were recovered by trypsinization for use in experiments at low passage. The keloid fibroblasts are morphologically identical to commercially obtained normal primary Human Dermal Fibroblasts (HDF) (Cell Applications, Cat.#106-05a) used in our controls. Cell proliferation assays. To determine relative cell survival following radiation or steroid treatments, 7,500 fibroblasts were seeded per well in triplicate in 12-well plates. Following attachment, the cells were treated with steroids or irradiated using a X-Rad 320 irradiator. Surviving fibroblasts were counted on a Coulter counter 7 days post-treatment.

[1] = fibroblasts from 3 normal human skin biopsies and 20 surgically excised keloids, 10 micromolar TA, cells counted 4-7 days post-treatment
[2] = keloid explants and fibroblasts, 10 μM TA for a week

CC1(C)O[C@@H]2C[C@H]3[C@@H]4CCC5=CC(=O)C=C[C@]5(C)[C@@]4(F)[C@@H](O)C[C@]3(C)[C@]2(C(=O)CO)O1 [TA, Triamcinolone Acetonide]
samples hyperproliferative in TA [1]: 9%
samples non-responsive to TA [1]: 39%
samples sensitive (responsive) to the TA treatment [1]: 52%
samples with hyperproliferation [2]: 10%
samples with modest reduction in proliferation (steroid sensitive) [2]: 50%
samples with no significant effects on proliferation (steroid insensitive) [2]: 40%
